One test concerns D-263MG (Glioblastoma). Briefly: Bliss excess, mean over the matrix (fraction); higher = more synergy. An outline of the steps: (§1)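 After 24 hours at 37°C and 5% CO2 in 1536-well plates, cells in DMEM/F12 or RPMI plus 10% FBS received two-drug dose matrices for 72 hours. Viability came from CellTiter-Glo 2.0 luminescence and was scaled as inhibition, anchored at 0 by vehicle wells and at 1 by blank wells. Combination Emax is taken as the second-highest inhibition in the matrix, and Bliss excess as the observed combination effect less EA + EB − EA·EB, with EA and EB the single-agent effects.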

A further test relates to ACHN (Kidney Carcinoma). The test can be described thus: combination Emax (second highest fraction inhibited in the dose matrix, 72 h); higher = more inhibition; extreme values may be limits of the assay. An outline of the steps: as §1
The next test has as its system EW-24 (Ewing's Sarcoma). The description is as above. An outline of the steps: as §1
Test [1] deals with EoL-1-cell (Acute Myeloid Leukemia). Described as above. The procedure, abridged: as §1
Test [2] concerns HGC-27 (Gastric Carcinoma). The test is described as above. An outline of the steps: as §1
Test [3] deals with HOP-62 (Lung Adenocarcinoma). The description is as above. The procedure, abridged: as §1
The subject of test [4] is Hs-766T (Pancreatic Carcinoma). The test is described as above. The procedure, abridged:
as §1

Test [5] has as its system KARPAS-299 (T-Cell Non-Hodgkin's Lymphoma). Described as above. An outline of the steps:
as §1

Test [6] has as its system KMOE-2 (Acute Myeloid Leukemia). The test is described as above. An outline of the steps:
as §1

The subject of test [7] is KYSE-450 (Esophageal Squamous Cell Carcinoma). Described as above. An outline of the steps: as §1
Another test deals with NB69 (Neuroblastoma). The test is described as above. The procedure, abridged: as §1
Test [8] deals with NCI-H1915 (Non-Small Cell Lung Carcinoma). The test is described as above. The procedure, abridged:
as §1

Test [9] concerns NCI-H358 (Lung Adenocarcinoma). Described as above. An outline of the steps:
as §1

The subject of test [10] is NCI-H727 (Other Solid Carcinomas). Described as above. An outline of the steps:
as §1

The test system of test [11] is OE19 (Esophageal Adenocarcinoma). The description is as above. The procedure, abridged: as §1
In test [12] the test system is OVCAR-4 (Ovarian Carcinoma). The test is described as above. The procedure, abridged: as §1
Test [13] deals with RF-48 (B-Cell Non-Hodgkin's Lymphoma). The test is described as above. The procedure, abridged:
as §1

Test [14] has as its system SCC-15 (Oral Cavity Carcinoma). The description is as above. The procedure, abridged:
as §1

In test [15] the test system is TE-1 (Esophageal Squamous Cell Carcinoma). The description is as above. The procedure, abridged: as §1
A further test has as its system UACC-62 (Melanoma). The test is described as above. An outline of the steps:
as §1

Each structure is given as a SMILES string.
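For Bliss excess, mean over the matrix in this document: after 72 h of two-drug dosing.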

For the compound `COc1cccc(OCCCN)c1-c1cc(Nc2cnc(C#N)cn2)n[nH]1` [Prexasertib] + CN(C)CCCOc1ccc(-c2ccc3ncc4c(c3c2)n(C2CCOCC2)c(=O)n4C)cn1 [AZD0156] (first compound max 1 µM, 7x7, partner max 1 µM), in the test on D-263MG (Glioblastoma), the Bliss excess worked out at 0.0273. In addition, the “combination Emax” value in the test with ACHN (Kidney Carcinoma) is 0.926; in the test with EW-24 (Ewing's Sarcoma), 0.68; in [1], 0.998; in test [2], 0.858; in test [3], 0.632; in test [4], 0.665. Also, the “combination Emax” value in [5] is 0.983; in test [6], 0.945; in test [7], 0.615; in the test on NB69 (Neuroblastoma), 0.915; in [8], 0.588; in test [9], 0.775. Also, the “combination Emax” value in [10] was determined as 0.717; in [11] it was 0.889; in test [12] it was 0.771; in test [13] it was 0.744; in [14], 0.617; in test [15], 0.71. In addition, the “combination Emax” value in the test with UACC-62 (Melanoma) was 0.828.

As for `COc1cccc(OCCCN)c1-c1cc(Nc2cnc(C#N)cn2)n[nH]1` [Prexasertib] + C[C@@H]1COCCN1C2=NC(=NC(=C2)C3(CC3)[S@](=N)(=O)C)C4=C5C=CNC5=NC=C4 [AZD6738] (first compound max 1 µM, 7x7, partner max 10 µM), the Bliss excess in the test with D-263MG (Glioblastoma) was -0.019. Further, the “combination Emax” value in the test on ACHN (Kidney Carcinoma) came to 0.928; in the test on EW-24 (Ewing's Sarcoma) it was 0.645; in [1] it was 0.996; in test [2] it was 0.895; in test [3], 0.648; in test [4], 0.658. The “combination Emax” value came to 0.985 in [5]; 0.948 in test [6]; 0.651 in [7]; 0.91 in the test on NB69 (Neuroblastoma); 0.612 in test [8]; 0.825 in test [9]. Besides, the “combination Emax” value in test [10] worked out at 0.72; in [11], 0.935; in [12], 0.832; in test [13], 0.71; in [14] it was 0.663; in test [15] it was 0.641. Moreover, the “combination Emax” value with UACC-62 (Melanoma) came out at 0.697.

As to `COc1cccc(OCCCN)c1-c1cc(Nc2cnc(C#N)cn2)n[nH]1` [Prexasertib] + Cc1cc2ncnn2cc1Nc1ncc2c(n1)n(C1CCOCC1)c(=O)n2C [AZD7648] (first compound max 1 µM, 7x7, partner max 10 µM), the Bliss excess with D-263MG (Glioblastoma) was -0.0394. For the same compound, the “combination Emax” value worked out at 0.935 in the test with ACHN (Kidney Carcinoma); 0.649 with EW-24 (Ewing's Sarcoma); 0.998 in test [1]; 0.858 in [2]; 0.582 in test [3]; 0.709 in test [4]. The “combination Emax” value stood at 0.962 in [5]; 0.945 in [6]; 0.584 in [7]; 0.906 in the test with NB69 (Neuroblastoma); 0.602 in [8]; 0.769 in [9]. In addition, the “combination Emax” value in test [10] turned out to be 0.695; in [11], 0.897; in test [12], 0.777; in test [13], 0.725; in test [14], 0.549; in test [15] it was 0.694. Also, in the test with UACC-62 (Melanoma), the “combination Emax” value amounted to 0.823.

On to `COc1cccc(OCCCN)c1-c1cc(Nc2cnc(C#N)cn2)n[nH]1` [Prexasertib] + O=C(c1cc(Cc2n[nH]c(=O)c3ccccc23)ccc1F)N1CCN(C(=O)C2CC2)CC1 [Olaparib] (first compound max 1 µM, 7x7, partner max 10 µM), for which the Bliss excess in the test on D-263MG (Glioblastoma) is -0.0665. Moreover, the “combination Emax” value was 0.906 with ACHN (Kidney Carcinoma); 0.696 with EW-24 (Ewing's Sarcoma); 1 in test [1]; 0.91 in test [2]; 0.606 in test [3]; 0.658 in [4]. Further, the “combination Emax” value in [5] was determined as 1; in [6] it was 0.974; in [7], 0.744; with NB69 (Neuroblastoma), 0.896; in test [8], 0.665; in test [9], 0.85. The “combination Emax” value turned out to be 0.389 in test [10]; 0.648 in test [11]; 0.743 in [12]; 0.726 in test [13]; 0.482 in test [14]; 0.621 in test [15]. The “combination Emax” value in the test on UACC-62 (Melanoma) turned out to be 0.743.

For `CCc1c2c(nc3ccc(O)cc13)-c1cc3c(c(=O)n1C2)COC(=O)[C@]3(O)CC` [SN-38] + CN(C)CCCOc1ccc(-c2ccc3ncc4c(c3c2)n(C2CCOCC2)c(=O)n4C)cn1 [AZD0156] (first compound max 0.3 µM, 7x7, partner max 1 µM), in the test with D-263MG (Glioblastoma), the Bliss excess was 0.0701. For the same compound, the “combination Emax” value in the test on ACHN (Kidney Carcinoma) turned out to be 0.951; with EW-24 (Ewing's Sarcoma) it was 0.781; in test [1], 0.995; in [2] it was 0.885; in test [3], 0.664; in [4], 0.39. The “combination Emax” value in [5] was determined as 0.924; in test [6], 0.945; in [7] it was 0.767; in the test on NB69 (Neuroblastoma) it was 0.995; in test [8], 0.609; in test [9], 0.722. Further, the “combination Emax” value in [10] was determined as 0.297; in [11], 0.618; in test [12], 0.187; in [13] it was 0.801; in test [14], 0.709; in test [15], 0.522. Further, the “combination Emax” value with UACC-62 (Melanoma) worked out at 0.891.

Turning to `Cn1cnc2c(F)c(Nc3ccc(Br)cc3Cl)c(C(=O)NOCCO)cc21` [Selumetinib] + C=CCn1c(=O)c2cnc(Nc3ccc(N4CCN(C)CC4)cc3)nc2n1-c1cccc(C(C)(C)O)n1 [AZD1775] (first compound max 10 µM, partner max 1 µM), the Bliss excess in the test on D-263MG (Glioblastoma) was -0.0567. Moreover, the “combination Emax” value was 0.863 with ACHN (Kidney Carcinoma); 0.334 in the test with EW-24 (Ewing's Sarcoma); 1 in test [1]; 0.536 in test [2]; 0.487 in test [3]; 0.487 in [4]. Moreover, the “combination Emax” value in test [5] is 0.851; in test [6] it was 1; in test [7], 0.499; with NB69 (Neuroblastoma), 0.944; in test [8], 0.846; in [9], 0.621. The “combination Emax” value in test [10] stood at 0.614; in test [11] it was 0.28; in [12], 0.546; in [13], 0.489; in test [14] it was 0.3; in test [15] it was 0.638. Further, the “combination Emax” value with UACC-62 (Melanoma) amounted to 0.827.

For the compound `Cn1cnc2c(F)c(Nc3ccc(Br)cc3Cl)c(C(=O)NOCCO)cc21` [Selumetinib] + CC(C)n1c(=O)n(C)c2cnc3cc(F)c(-c4ccc(OCCCN5CCCCC5)nc4)cc3c21 [AZD1390] (first compound max 10 µM, 7x7, partner max 0.3 µM), the Bliss excess with D-263MG (Glioblastoma) is -0.0352. The “combination Emax” value was 0.305 in the test with ACHN (Kidney Carcinoma); 0.132 with EW-24 (Ewing's Sarcoma); 0.762 in test [1]; 0.171 in test [2]; 0.409 in test [3]; 0.475 in [4]. For the same compound, the “combination Emax” value turned out to be 0.347 in test [5]; 0.976 in [6]; 0.0763 in test [7]; 0.836 in the test with NB69 (Neuroblastoma); 0.641 in test [8]; 0.444 in test [9]. The “combination Emax” value in test [10] was 0.614; in test [11] it was 0.128; in test [12] it was 0.126; in test [13], 0.119; in [14], 0.176; in test [15], 0.384. Also, the “combination Emax” value with UACC-62 (Melanoma) is 0.787.

The values are drawn from the supplement of paper PMC11061612.
